Columns and labels:
[1] = biological target: T-cell surface glycoprotein CD4 (Homo sapiens, UniProt P01730); assay: Inhibitory concentration against CD4-gp120 binding in the absence of fetal bovine serum (FBS); Range is 0.13-0.5 uM
[2] = Inhibition of CD28-CD80 interaction in the absence of fetal bovine serum (FBS)
[3] = Inhibition of CD28-CD80 interaction in the presence of fetal bovine serum (FBS)

IC50 [1]	IC50 [2]	IC50 [3]	Structure (SMILES)
130 nM	10 nM	420 nM	CN1C(=O)[C@@H](c2cc(Cl)c(O)c(Cl)c2)NC(=O)[C@@H]2NC(=O)[C@@H](c3cc(Cl)c(O)c(Cl)c3)NC(=O)[C@H](NC(=O)C(=O)c3cc(Cl)c(O)c(Cl)c3)Cc3c[nH]c4cc(ccc34)-c3cc2cc(c3O)Oc2ccc(cc2)C[C@H]1C(=O)N[C@@H](C(=O)O)c1ccc(O)cc1 [ISOCOMPLESTATIN]
130 nM	10 nM	380 nM	CN1C(=O)[C@@H](c2cc(Cl)c(O)c(Cl)c2)NC(=O)[C@@H]2NC(=O)[C@@H](c3cc(Cl)c(O)c(Cl)c3)NC(=O)[C@H](NC(=O)C(=O)c3cc(Cl)c(O)c(Cl)c3)Cc3c[nH]c4c(cccc34)-c3cc2cc(c3O)Oc2ccc(cc2)C[C@H]1C(=O)N[C@@H](C(=O)O)c1ccc(O)cc1 [CHLOROPEPTIN]
130 nM	8 nM	220 nM	CC(=O)CC(O)(C(=O)N[C@@H]1Cc2c[nH]c3cc(ccc23)-c2cc3cc(c2O)Oc2ccc(cc2)C[C@@H](C(=O)N[C@@H](C(=O)O)c2ccc(O)cc2)N(C)C(=O)[C@@H](c2cc(Cl)c(O)c(Cl)c2)NC(=O)[C@@H]3NC(=O)[C@@H](c2cc(Cl)c(O)c(Cl)c2)NC1=O)c1cc(Cl)c(O)c(Cl)c1 (some centres undefined)

— ChEMBL document CHEMBL1136573, “Condensed aromatic peptide family of microbial metabolites, inhibitors of CD28-CD80 interactions” (Bioorg Med Chem Lett, 2003)
